As a reminder, the IC50 is the concentration needed to halve the response being measured. For orientation: CC50 means the concentration giving 50% cytotoxicity.

Series [1] deals with Trypanosoma cruzi. As to the kind of experiment: Antiparasitic activity against trypomastigote stage of Trypanosoma cruzi Y assessed as parasite viability after 24 hrs by MTT assay. In kind it is functional, organism-based.
In series [2] the test system is Trypanosoma cruzi. The series can be described thus: Antiparasitic activity against amastigote stage of Trypanosoma cruzi Y. In kind it is functional, organism-based.
In series [3] the test system is Leishmania infantum. The series can be described thus: Antiparasitic activity against promastigote stage of Leishmania infantum assessed as parasite viability after 24 hrs by MTT assay. In kind it is functional, organism-based. (Formazan colour is commonly taken as a measure of viable cells.)
Series [4] relates to Leishmania infantum. As to the kind of experiment: Antiparasitic activity against amastigote stage of Leishmania infantum infected in BALB/c mouse peritoneal macrophages assessed as reduction of parasite burden after 120 hrs by Giemsa staining-based light microscopic analysis. In kind it is functional, organism-based.
Series [5] can be described thus: Cytotoxicity against mouse NCTC-929 cells assessed as cell viability after 48 hrs by MTT assay. It is filed as cell-based.
Series [6] in a line: Selectivity index, ratio of CC50 for mouse […] cells to IC50 for Trypanosoma cruzi Y trypomastigotes. It is filed as functional.
Series [7] in a line: Selectivity index, ratio of CC50 for mouse […] cells to IC50 for Leishmania infantum promastigotes. It is filed as functional, NCTC-929.
The nature of series [8]: Selectivity index, ratio of CC50 for mouse […] cells to IC50 for Trypanosoma cruzi Y amastigotes. In kind it is functional.
Series [9] can be described thus: Selectivity index, ratio of CC50 for mouse […] cells to IC50 for Leishmania infantum amastigotes. It is filed as functional.
Series [10] has as its system Leishmania infantum. The series can be described thus: Potency index, ratio of gibbilimbol B IC50 to compound IC50 for amastigote stage of Leishmania infantum infected in BALB/c mouse peritoneal macrophages. In kind it is functional.
[11] abbreviates: Trypanosoma cruzi, Y, 24 h, read-out: IC50.
[12] abbreviates: Leishmania infantum, 24 h, read-out: IC50.
Where [13] appears, read: Trypanosoma cruzi, Y, read-out: IC50.
Setting [14] is: Leishmania infantum, 120 h, read-out: IC50.

Bounds are passed on as bounds.

For `CCCCCCCCOC(=O)c1ccc(O)cc1`, the concentration for half-maximal inhibition (IC50) in the series on Trypanosoma cruzi [1] (setting [11]) is 4.5 µM; in the series with Trypanosoma cruzi [2], “Not Active”; in the series on Leishmania infantum [3] (setting [12]), 123 µM; in the series with Leishmania infantum [4], “Not Active”. In addition, the CC50 at 48 h in series [5] was determined as 130 µM. Further, the “Ratio CC50/IC50” value was found to be 29 in series [6] and 1.1 in [7].

With `CCCCCCCC/N=C/c1ccc(O)cc1`, the IC50 entry was “Not Active” with Trypanosoma cruzi [1], “Not Active” in the series with Trypanosoma cruzi [2], 19.9 µM in the series with Leishmania infantum [3] (setting [12]) and “Not Active” in the series with Leishmania infantum [4]. The CC50 at 48 h in series [5] was determined as 99.2 µM. In [7], the “Ratio CC50/IC50” value worked out at 5.

For `CCCCCCCC(O)/C=C/c1ccc(O)cc1` (centres undefined), the IC50 is 6.1 µM in the series on Trypanosoma cruzi [1] (setting [11]), “Not Active” with Trypanosoma cruzi [2], 125 µM with Leishmania infantum [3] (setting [12]) and “Not Active” with Leishmania infantum [4]. Besides, in series [5], the CC50 at 48 h amounted to 49.5 µM. In addition, the “Ratio CC50/IC50” value was 8.1 in series [6] and 0.4 in series [7].

As to `CCCCCCCCNC(=O)c1ccc(O)cc1`, the half-inhibitory concentration (IC50) was 26.5 µM in the series on Trypanosoma cruzi [1] (setting [11]), “Not Active” with Trypanosoma cruzi [2], 45.1 µM in the series with Leishmania infantum [3] (setting [12]) and “Not Active” in the series on Leishmania infantum [4]. For the same compound, in series [5], the CC50 at 48 h stood at 45.4 µM. For the same compound, the “Ratio CC50/IC50” value in series [6] was 1.7; in [7], 1.

As to `CCCCCCCC(=O)/C=C/c1ccc(O)cc1`, the half-maximal inhibitory concentration (IC50) in the series on Trypanosoma cruzi [1] (setting [11]) is 11.8 µM; in the series on Trypanosoma cruzi [2] (setting [13]) it was 22.5 µM; in the series with Leishmania infantum [3] (setting [12]), 82.7 µM; with Leishmania infantum [4] it was “Not Active”. In series [5], the CC50 at 48 h is 82.8 µM. Moreover, the “Ratio CC50/IC50” value in [6] turned out to be 7; in series [8] it was 3.7; in [7], 1.

Regarding `CCCCCCCCNCc1ccc(O)cc1`, the IC50 in the series with Trypanosoma cruzi [1] (setting [11]) came out at 17 µM; in the series with Trypanosoma cruzi [2] (setting [13]), 5.5 µM; in the series on Leishmania infantum [3] (setting [12]), 28.6 µM; in the series on Leishmania infantum [4] (setting [14]), 1.8 µM. Moreover, the CC50 at 48 h in series [5] was 23.5 µM. The “Ratio CC50/IC50” value came out at 1.4 in series [6], 4.3 in series [8], 0.8 in [7] and 13.1 in [9]. Besides, the “Ratio IC50” value in the series with Leishmania infantum [10] amounted to 52.

As for `CCCCNCc1ccc(O)cc1`, the 50% inhibitory concentration (IC50) result with Trypanosoma cruzi [1] is “Not Active”; with Trypanosoma cruzi [2], “Not Active”; in the series on Leishmania infantum [3] (setting [12]), 31.6 µM; in the series on Leishmania infantum [4], “Not Active”. For the same compound, the CC50 at 48 h in [5] is above 300 µM. Further, the “Ratio CC50/IC50” value in [7] is on record as above 9.5.

As for `O=C(Cn1ccnc1[N+](=O)[O-])NCc1ccccc1` [BENZNIDAZOLE], the IC50 in the series with Trypanosoma cruzi [2] (setting [13]) stood at 230 µM. The CC50 at 48 h in [5] came to 270 µM.

As to `CCCCOC(=O)c1ccc(O)cc1` [BUTYLPARABEN], the IC50 result in the series with Trypanosoma cruzi [1] was “Not Active”; in the series on Trypanosoma cruzi [2] (setting [13]) it was 26.4 µM; with Leishmania infantum [3] it was “Not Active”; in the series with Leishmania infantum [4] it was “Not Active”. Moreover, the CC50 at 48 h in series [5] worked out at 168 µM. Besides, in [8], the “Ratio CC50/IC50” value is recorded as 6.4.

Take `CCCCCCCCCCCCCCCCOP(=O)([O-])OCC[N+](C)(C)C` [MILTEFOSINE]: the IC50 in the series on Leishmania infantum [3] (setting [12]) came out at 16.7 µM; in the series with Leishmania infantum [4] (setting [14]) it was 16.4 µM. Further, the CC50 at 48 h in [5] was 241 µM. Further, the results for the “Ratio CC50/IC50” value in series [7] and in [9] were 14.5 and 14.7, respectively.
